Reference: US20250221953A1 (The University of Chicago, priority 2022, published 2025)

Columns and labels:
Mouse T cell = assay: Second screen: IL-2 level of murine primary T cells; assay type: cell-based
Excerpt: Two preliminary screens were designed and performed.

[1] = system: mouse primary CD8^+ T cells; assay: Phospho antibody array; assay type: cell-based
Procedure: The quantification for pixel density in each spot of the array was carried out by subtracting background signals from the spot intensity using software ImageJ (ImageJ, RRID: SCR_003070). Please also refer to Resources Table and Table 6 for more details.

B16F10 tumor = assay: Mouse tumor model, B16F10; assay type: in vivo; conditions: B16F10 tumor-bearing C57BL/6 mice on enriched diet vs control diet
Procedure: For C57BL/6 mice and TCR-a KO mice tumor model, mice were anesthetized with isoflurane, shaved the injection site, and then injected subcutaneously in the abdominal flank with 1×10^5 B16F10, MC38, or LLC1 cells, or in the mammary gland with 2×10^5 E0771 cells. C57BL/6 nude mice were injected subcutaneously in the abdominal flank with 1×10^5B16F10 cells. […] Tumors were measured the tumors using a caliper every 2-3 days. Tumor volumes were calculated using the following formula: length×width×[(length×width)^0.5]×π/6. Mice were euthanized at humane endpoints or day 11-15 for tissue collection.
The mice were treated once a day for 5 consecutive days per week for 2 weeks. Tumors were measured the tumors using a caliper every 2-3 days. Tumor volumes were calculated using the following formula: length×width×[(length×width)^0.5]×π/6. Mice were euthanized at humane endpoints.
For anti-PD-1 treatment mouse model, 6-8 weeks old C57BL/6 mice were anesthetized with isoflurane, shaved the injection site, and then injected subcutaneously in the abdominal flank with 1×10^5 B16F10 for tumor development. […] In day 3, 6, 9, 12, and 15, 250 μg anti-PD-1 (BioXCell) or IgG control (BioXCell) was injected intraperitoneally per mouse. Tumors were measured the tumors using a caliper every 2-3 days. Tumor volumes were calculated using the following formula: length×width×[(length×width)^0.5]×π/6. […]

primary CD4^+ T cells = assay: In vitro function of activated mouse primary CD4+ T cells; assay type: cell-based; conditions: TVA treatment in vitro
Procedure: For experiments with live/dead criteria, cells were first stained with Fixable Viability Dyes (FVD) (Thermo Fisher Scientific) according to the manufacturer's instructions. Subsequent surface marker staining was performed in Flow Cytometry Staining Buffer (Thermo Fisher Scientific). Intracellular staining for flow panels containing nuclear proteins was performed using the eBioscience FoxP3/Transcription Factor Staining Buffer Set (Thermo Fisher Scientific) according to the manufacturer's instructions. For intracellular staining of cytoplasmic proteins, the Fixation/Permeabilization Solution Kit (BD Biosciences) was used according to the manufacturer's instructions.

colon tumors = assay: Colon tumorigenesis in Apc+/fl; Cdx-2P-Cre-NLS mice; assay type: in vivo, mouse; conditions: gavage TVA 35 mg/kg bw daily×5 days for 4 wks; lipid rich diet

CCCCCC/C=C/CCCCCCCCCC(=O)O [TVA, trans-vaccenic acid]
Mouse T cell IL-2 level changes after treatment (Mouse T cell): 183.5%
IL-2 production from mouse primary T cells (Mouse T cell; 20 μM TVA (FIG. 17A)): enhances IL-2 production
p-CREB level (phospho-antibody array) ([1]; 40 min, 2 h and 6 h post-TVA treatment, reduces at 24 h): Increased p-CREB level
p-STAT1 level (phospho-antibody array) ([1]; 2 h and 24 h TVA treatment): elevated
phosphorylation level of AKT (p-AKT) ([1]; 2 h post-TVA treatment): reduced phosphorylation level of AKT (p-AKT)
phosphorylation level of STAT3 (p-STAT3) ([1]; 2 h post-TVA treatment): increased phosphorylation level of STAT3 (p-STAT3)
p-AKT level ([1]; 24 h post-TVA treatment): increased p-AKT level at 24 h
body weights of mice (B16F10 tumor): did not alter body weights
IL-2 production of primary CD4+ T cells (primary CD4^+ T cells): increased IL-2 production
TNF-α, IFN-γ and apoptosis of primary CD4+ T cells (primary CD4^+ T cells): non-altered expression of TNF-α and IFN-γ or apoptosis
tumorigenesis and tumor progression (tumor multiplicity, pathology) (colon tumors): Suppresses Tumorigenesis and Tumor Progression
